Values of other authors as cited in US10806792B2 (Mayne Pharma International Pty Ltd., priority 2012, dated 2020).
Where two headings read alike, the source gives them in different places.

How the values were obtained:
[1] = test system: typical infecting organisms for specific superficial and systemic mycoses; conditions: for MIC RANGE: in µg/mL

CCC(C)n1ncn(-c2ccc(N3CCN(c4ccc(OCC5COC(Cn6cncn6)(c6ccc(Cl)cc6Cl)O5)cc4)CC3)cc2)c1=O (stereo not drawn) [itraconazole]
absolute oral bioavailability (100 mg dose of itraconazole oral solution): approximately 55% | reduction of Cmax and AUC in the fasting state vs after a light meal (in vivo): 50-70% | MIC RANGE ([1]; A. flavus complex, Aspergillosis): 0.03-8 | MIC RANGE ([1]; A. nidulans complex, Aspergillosis): 0.03-8 | MIC RANGE ([1]; A. niger complex, Aspergillosis): 0.03-8 | MIC RANGE ([1]; A. terreus complex, Aspergillosis): 0.03-1 | MIC RANGE ([1]; C. albicans, Candidiasis): 0.008-8 | MIC90 ([1]; C. glabrata, Candidiasis): MIC90 = 16 | MIC RANGE ([1]; C. kruset, Candidiasis): 0.008-8 | MIC RANGE ([1]; C. parapsilosis, Candidiasis): 0.016-2 | MIC RANGE ([1]; C. tropicalis, Candidiasis): 0.03-8 | MIC RANGE ([1]; Epidermophyton floccosum, tinea corporis): 0.01-8 | MIC RANGE ([1]; Epidermophyton floccosum, tinea cruris): 0.01-8 | MIC RANGE ([1]; Epidermophyton floccosum, tinea manuum): 0.01-8 | MIC RANGE ([1]; Epidermophyton floccosum, tinea pedis): 0.01-8 | MIC RANGE ([1]; Epidermophyton floccosum, tinea unguium): 0.01-8 | MIC RANGE ([1]; Microsporum sp. (audounti, canis, gypseum, ferrugineum et al.), tinea capitis): 0.01-4 | MIC RANGE ([1]; Microsporum sp. (canis, et al.), tinea cruris): 0.01-4 | MIC RANGE ([1]; Microsporum sp. (canis, et al.), tinea unguium): 0.01-4 | MIC RANGE ([1]; Microsporum sp. (canis, gypseum, et al.), tinea corporis): 0.01-4 | MIC RANGE ([1]; Microsporum sp. (canis, gypseum, et al.), tinea pedis): 0.01-4 | MIC RANGE ([1]; Trichophyton sp. (rubrum, interdigitale, mentagrophytes.), tinea manuum): 0.01-8 | MIC RANGE ([1]; Trichophyton sp. (rubrum, tonsurans interdigitale, mentagrophytes, concentricim, violaceum et al.), tinea corporis): 0.01-8 | MIC RANGE ([1]; Trichophyton sp. (rubrum, tonsurans interdigitale, mentagrophytes, et al.), tinea cruris): 0.01-8 | MIC RANGE ([1]; Trichophyton sp. (rubrum, tonsurans interdigitale, mentagrophytes, et al.), tinea pedis): 0.01-8 | MIC RANGE ([1]; Trichophyton sp. (rubrum, tonsurans interdigitale, mentagrophytes, et al.), tinea unguium): 0.01-8 | MIC RANGE ([1]; Trichophyton sp. (tonsurans violaceum, soudanese, schoenleinii, mentagrophytes, verrucossum, et al.), tinea capitis): 0.01-8
